According to patent US9708370B2, “Azapeptides as CD36 binding compounds” (VALORISATION-RECHERCHE, LIMITED PARTNERSHIP, priority 2007, dated 2017):
Starred links: 1 amine or outer side, 2 acyl side, 3 side chain; linkers in the order of their positions; H or OH if unused. Non-standard residues stand in square brackets, D forms with d. Residues, ends and D or L forms follow the SMILES beside them. *: point of attachment. X4 = O=C(N(Cc1ccc(-c2ccccc2)cc1)N[*:1])[*:2]; azaTyr = O=C(N(Cc1ccc(O)cc1)N[*:1])[*:2]; X3 = O=C(N(Cc1cccc2ccccc12)N[*:1])[*:2]; azaPhe = O=C(N(Cc1ccccc1)N[*:1])[*:2]; azaLeu = CC(C)CN(N[*:1])C(=O)[*:2]; azaPro = O=C(N1CCCN1[*:1])[*:2]; AzaAla = CN(N[*:1])C(=O)[*:2]; X5 = O=C(CC1CNc2ccccc21)*; azaGly = NNC(=O)O

The compounds below were run against human GHS-R1a (Homo sapiens (Human), UniProt Q92847) (assay: GHS-R1a binding assay, competition with 125I-ghrelin on membranes of LLC-PK1 cells expressing human GHS-R1a). Conditions: Table 4; LLCPK-1 membranes overexpressing GHS-R1a; radioiodinated (1-28) rat ghrelin as tracer; read-out: EC50 (text: IC50 values from competition curves in GHS-R1a radioreceptor assay).
human GHS-R1a, sequence (Q92847 whole entry): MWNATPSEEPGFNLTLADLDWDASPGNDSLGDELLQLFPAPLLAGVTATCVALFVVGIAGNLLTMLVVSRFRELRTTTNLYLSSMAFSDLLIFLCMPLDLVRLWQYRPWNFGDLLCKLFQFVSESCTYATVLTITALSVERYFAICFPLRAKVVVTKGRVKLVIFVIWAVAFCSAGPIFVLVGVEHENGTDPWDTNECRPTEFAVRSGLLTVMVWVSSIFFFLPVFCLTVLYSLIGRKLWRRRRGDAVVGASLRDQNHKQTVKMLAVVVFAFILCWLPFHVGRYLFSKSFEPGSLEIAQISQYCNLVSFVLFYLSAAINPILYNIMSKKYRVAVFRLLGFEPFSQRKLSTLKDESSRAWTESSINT
Description: Rat ghrelin was radio iodinated with Na^125I using the lodo-Beads iodination reagent (Pierce #28665). Briefly, an lodo-bead was incubated with 2 mCi of Na^125I (Amersham) in 100 μL of 50 mM sodium phosphate buffer, pH 7.0 for 5 min at 22° C. The reaction was started by adding 20 nmol of the peptide (1 mM in 0.1 M acetic acid). The tube was incubated for 10 min at 22° C. The iodination was terminated by adding 1 mL of 0.1% TFA. The mono-iodinated peptide was purified by reverse-phase HPLC using a Vydac C18 ([…]) column (30 cm×0.39 cm) in combination with a binary elution system of (A) 0.1% TFA in H2O and (B) 0.1% TFA, 10% H2O, 90% acetonitrile. Fractions of 0.5 mL were collected and analyzed by its radioactive content.
Cells (1.4×10^6) were plated in 100 mm plates and transfected 24 h later with pCDNA3.1-hGHS-R1a (UMR cDNA Resource Center #GHSR0A0000) following the CaHPO4 precipitation method. Briefly, 40 μg of plasmid DNA was diluted in 500 μL of sterile H2O and added to an equal volume of a 4× CaCl2, pH 7.9 solution (2 mM Tris-HCl, 0.2 mM EDTA, 500 mM CaCl2). The mixture was then added slowly with air bubbles to 1 mL of 2× Hepes-buffered saline, pH 7.1 (50 mM Hepes, 280 mM NaCl, 1.5 mM Na2HPO4). After 30 min at room temperature, 1 mL was distributed evenly over the cells and let overnight. The medium was changed the next morning and the membrane preparation was made two days later.
Cells were washed twice with PBS and once with ice-cold homogenization buffer (50 mM Tris-HCl, pH 7.3, 5 mM MgCl2, 2.5 mM EDTA, 30 μg/ml bacitracin). Cells were scraped and harvested in 1.5 mL tubes. Cells were then lysed by temperature shock with two freeze/thaw cycles in liquid nitrogen. The tubes were centrifuged at 14000 g for 20 min. Pellets were resuspended in homogenization buffer and stored at −80° C. until used. Total protein concentrations were determined with the BCA protein assay kit (Pierce).
Competition experiments were performed by incubating 50 μg of LLC-PK1 membranes expressing human GHS-R1a with 15 fmol of ^125I-Ghrelin and increasing concentrations of unlabeled ghrelin or with increasing concentrations of azapeptides derivatives in 0.5 mL of binding buffer. Bound radiolabelled ligand was separated from free by filtration on Whatman GF/C filters pretreated with a 1% polyethylenimine solution. Filters were washed with 2×3 mL of washing buffer (50 mM Tris-HCl, pH 7.3, 10 mM MgCl2, 2.5 mM EDTA, 0.015% Triton X-100). Filters were counted in a LKB gamma counter. Curves were analyzed using Prism software (GraphPad Software Inc).

Compound	IC50
CN(NC(=O)[C@@H](Cc1c[nH]c2ccccc12)NC(=O)[C@@H](N)Cc1cnc[nH]1)C(=O)N[C@@H](Cc1c[nH]c2ccccc12)C(=O)N[C@H](Cc1ccccc1)C(=O)N[C@@H](CCCCN)C(N)=O [DBG145, His-D-Trp-azaAla-Trp-D-Phe-Lys-NH2] (H-H[dW][AzaAla]W[dF]K-NH2)	0.809 µM
C[C@H](NC(=O)[C@@H](Cc1c[nH]c2ccccc12)NC(=O)[C@@H](N)Cc1cnc[nH]1)C(=O)NN(Cc1ccc(-c2ccccc2)cc1)C(=O)N[C@H](Cc1ccccc1)C(=O)N[C@@H](CCCCN)C(N)=O [DBG253-3, His-D-Trp-Ala-azaBip-D-Phe-Lys-NH2] (H-H[dW]A[X4][dF]K-NH2)	1.34 µM
CN(NC(=O)[C@@H](Cc1c[nH]c2ccccc12)NC(=O)CC1CNc2ccccc21)C(=O)N[C@@H](Cc1c[nH]c2ccccc12)C(=O)N[C@H](Cc1ccccc1)C(=O)N[C@@H](CCCCN)C(N)=O (stereo partly drawn) [DBG168-8, In—CO-D-Trp-azaAla-Trp-D-Phe-Lys-NH2] (X5-[dW][AzaAla]W[dF]K-NH2)	0.514 µM
C[C@H](NC(=O)[C@@H](Cc1c[nH]c2ccccc12)NC(=O)[C@@H](N)Cc1cnc[nH]1)C(=O)NN(Cc1cccc2ccccc12)C(=O)N[C@H](Cc1ccccc1)C(=O)N[C@@H](CCCCN)C(N)=O [DBG253-6, His-D-Trp-Ala-azaNal-1-D-Phe-Lys-NH2] (H-H[dW]A[X3][dF]K-NH2)	0.723 µM

Same assay, conditions: Table 5; read-out: IC50 Binding GHS-R1a

IC50	Compound
> 10 µM	C[C@H](NC(=O)[C@@H](Cc1c[nH]c2ccccc12)NC(=O)[C@@H](N)Cc1cnc[nH]1)C(=O)NN(Cc1ccccc1)C(=O)N[C@H](C)C(=O)N[C@@H](CCCCN)C(N)=O [CP-3(ii), His-D-Trp-Ala-azaPhe-D-Ala-Lys-NH2] (H-H[dW]A[azaPhe][dA]K-NH2)
> 10 µM	C[C@H](NC(=O)N(Cc1ccccc1)NC(=O)[C@@H](N)Cc1cnc[nH]1)C(=O)N[C@@H](Cc1c[nH]c2ccccc12)C(=O)N[C@H](C)C(=O)N[C@@H](CCCCN)C(N)=O [CP-1A(ii), His-azaPhe-Ala-Trp-D-Ala-Lys-NH2] (H-H[azaPhe]AW[dA]K-NH2)
> 10 µM	C[C@H](NC(=O)[C@H](C)NC(=O)N(Cc1ccc(O)cc1)NC(=O)[C@@H](N)Cc1cnc[nH]1)C(=O)N[C@H](Cc1ccccc1)C(=O)N[C@@H](CCCCN)C(N)=O [CP-1B(iii), (D/L)His-azaTyr-Ala-Ala-D-Phe-Lys-NH2] (H-H[azaTyr]AA[dF]K-NH2)
> 10 µM	C[C@H](NC(=O)NNC(=O)[C@@H](Cc1c[nH]c2ccccc12)NC(=O)[C@@H](N)Cc1cnc[nH]1)C(=O)N[C@H](Cc1ccccc1)C(=O)N[C@@H](CCCCN)C(N)=O [CP-2A(iii), His-D-Trp-azaGly-Ala-D-Phe-Lys-NH2] (H-H[dW][azaGly]A[dF]K-NH2)
> 10 µM	C[C@H](NC(=O)[C@@H](C)NC(=O)[C@@H](N)Cc1cnc[nH]1)C(=O)NN(Cc1ccccc1)C(=O)N[C@H](Cc1ccccc1)C(=O)N[C@@H](CCCCN)C(N)=O [CP-3 (iii), His-D-Ala-Ala-azaPhe-D-Phe-Lys-NH2] (H-H[dA]A[azaPhe][dF]K-NH2)
> 10 µM	NCCCC[C@H](NC(=O)[C@@H](Cc1ccccc1)NC(=O)C1CCCN1C(=O)NNC(=O)[C@@H](Cc1c[nH]c2ccccc12)NC(=O)[C@@H](N)Cc1cnc[nH]1)C(N)=O (stereo partly drawn) [CP-AzaGly-Pro, His-D-Trp-azaGly-Pro-D-Phe-Lys-NH2]
45 µM	C[C@H](NC(=O)[C@@H](Cc1ccccc1)NC(=O)[C@H](Cc1c[nH]c2ccccc12)NC(=O)NNC(=O)[C@@H](Cc1c[nH]c2ccccc12)NC(=O)[C@@H](N)Cc1cnc[nH]1)C(N)=O [CP-2A(i), His-D-Trp-azaGly-Trp-D-Phe-Ala-NH2] (H-H[dW][azaGly]W[dF]A-NH2)
> 10 µM	C[C@@H](NC(=O)[C@@H](N)Cc1cnc[nH]1)C(=O)NNC(=O)N[C@@H](Cc1c[nH]c2ccccc12)C(=O)N[C@H](Cc1ccccc1)C(=O)N[C@@H](CCCCN)C(N)=O [CP-2A(iv), His-D-Ala-azaGly-Trp-D-Phe-Lys-NH2] (H-H[dA][azaGly]W[dF]K-NH2)
> 10 µM	NCCCC[C@H](NC(=O)[C@@H](Cc1ccccc1)NC(=O)[C@H](Cc1c[nH]c2ccccc12)NC(=O)N1CCCN1C(=O)[C@@H](Cc1c[nH]c2ccccc12)NC(=O)[C@@H](N)Cc1cnc[nH]1)C(N)=O [CP-AP_4, His-D-Trp-azaPro-Trp-D-Phe-Lys-NH2] (H-H[dW][azaPro]W[dF]K-NH2)
> 10 µM	C[C@@H](NC(=O)[C@H](Cc1c[nH]c2ccccc12)NC(=O)NNC(=O)[C@@H](Cc1c[nH]c2ccccc12)NC(=O)[C@@H](N)Cc1cnc[nH]1)C(=O)N[C@@H](CCCCN)C(N)=O [CP-2A(ii), His-D-Trp-azaGly-Trp-D-Ala-Lys-NH2] (H-H[dW][azaGly]W[dA]K-NH2)
> 10 µM	CC(C)CN(NC(=O)[C@@H](C)NC(=O)[C@@H](N)Cc1cnc[nH]1)C(=O)N[C@@H](Cc1c[nH]c2ccccc12)C(=O)N[C@H](Cc1ccccc1)C(=O)N[C@@H](CCCCN)C(N)=O [CP-2B (iv), His-D-Ala-azaLeu-Trp-D-Phe-Lys-NH2] (H-H[dA][azaLeu]W[dF]K-NH2)
> 10 µM	C[C@H](NC(=O)[C@@H](Cc1ccccc1)NC(=O)N(Cc1ccccc1)NC(=O)[C@H](C)NC(=O)[C@@H](Cc1c[nH]c2ccccc12)NC(=O)[C@@H](N)Cc1cnc[nH]1)C(N)=O [CP-3(i), His-D-Trp-Ala-AzaPhe-D-Phe-Ala-NH2] (H-H[dW]A[azaPhe][dF]A-NH2)

Compound	IC50
C[C@H](N)C(=O)N[C@H](Cc1c[nH]c2ccccc12)C(=O)N[C@@H](C)C(=O)NN(Cc1ccccc1)C(=O)N[C@H](Cc1ccccc1)C(=O)N[C@@H](CCCCN)C(N)=O [CP-3 (iv), Ala-D-Trp-Ala-AzaPhe-D-Phe-Lys-NH2] (H-A[dW]A[azaPhe][dF]K-NH2)	> 10 µM
